Columns and labels:
Androgen receptor = biological target: T1, Androgen receptor (Homo sapiens, UniProt P10275); assay: Off-target screen Androgen receptor; format: binding; conditions: 10 µM; single point, duplicates
T1 construct: purchased Eurofins CEREP SA

Dopamine D1 receptor = biological target: T2, Dopamine D1 receptor (Homo sapiens, UniProt P21728); assay: Off-target screen Dopamine D1; format: binding; conditions: 10 µM; single point, duplicates
T2 construct: purchased Eurofins CEREP SA

5HT1A = biological target: T3, 5HT1A (Homo sapiens, UniProt P08908); assay: Off-target screen 5HT1A; format: binding; conditions: 10 µM; single point, duplicates
T3 construct: purchased Eurofins CEREP SA

MAO-A = biological target: T4, MAO-A (Homo sapiens, UniProt P21397); assay: Off-target screen MAO-A; format: biochemical; conditions: 10 µM; single point, duplicates
T4 construct: purchased Eurofins CEREP SA

Histamine H2 receptor = biological target: T5, Histamine H2 receptor (Homo sapiens, UniProt P25021); assay: Off-target screen Histamine H2; format: binding; conditions: 10 µM; single point, duplicates
T5 construct: purchased Eurofins CEREP SA

HDAC6 = biological target: T6, HDAC6 (Homo sapiens, UniProt Q9UBN7); assay: Off-target screen HDAC6; format: biochemical; conditions: 10 µM; single point, duplicates
T6 construct: purchased Eurofins CEREP SA

S1P1 [1] = biological target: T7, S1P1 (Homo sapiens, UniProt P21453); assay: Off-target screen S1P1, agonist mode; format: cell-based; conditions: 10 µM, single point, duplicates
T7 construct: purchased Eurofins CEREP SA

MMP-3 = biological target: T8, MMP-3 (Homo sapiens, UniProt P08254); assay: Off-target screen MMP-3; format: biochemical; conditions: 10 µM; single point, duplicates
T8 construct: purchased Eurofins CEREP SA

GSK-3B = biological target: T9, GSK-3B (Homo sapiens, UniProt P49841); assay: Off-target screen GSK-3B; format: biochemical; conditions: 10 µM; single point, duplicates
T9 construct: purchased Eurofins CEREP SA

S1P1 [2] = biological target: T7, S1P1; assay: Off-target screen S1P1, antagonist mode; format: cell-based; conditions: 10 µM, single point, duplicates
Muscarininc receptor M4 = biological target: T10, Muscarininc receptor M4 (Homo sapiens, UniProt P08173); assay: Off-target screen Muscarinic M4; format: binding; conditions: 10 µM; single point, duplicates
T10 construct: purchased Eurofins CEREP SA

PPARγ = biological target: T11, PPARγ (Homo sapiens, UniProt P37231); assay: Off-target screen PPARγ, agonist mode; format: cell-based; conditions: 10 µM, single point, duplicates
T11 construct: purchased Eurofins CEREP SA
T11 sequence (P37231 whole entry): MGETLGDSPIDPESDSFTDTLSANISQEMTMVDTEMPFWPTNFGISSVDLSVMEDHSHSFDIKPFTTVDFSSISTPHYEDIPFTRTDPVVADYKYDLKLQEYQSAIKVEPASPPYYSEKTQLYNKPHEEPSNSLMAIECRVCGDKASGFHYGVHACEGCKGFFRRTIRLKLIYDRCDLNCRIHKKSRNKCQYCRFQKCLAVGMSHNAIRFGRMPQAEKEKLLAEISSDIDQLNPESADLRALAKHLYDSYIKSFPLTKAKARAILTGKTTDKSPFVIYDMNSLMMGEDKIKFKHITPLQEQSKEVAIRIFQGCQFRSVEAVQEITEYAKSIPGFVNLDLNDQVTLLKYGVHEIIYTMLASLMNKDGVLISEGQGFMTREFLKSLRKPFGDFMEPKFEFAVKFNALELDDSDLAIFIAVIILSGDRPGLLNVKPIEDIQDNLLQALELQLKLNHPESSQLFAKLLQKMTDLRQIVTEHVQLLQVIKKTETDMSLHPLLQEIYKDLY

T7 sequence (P21453 whole entry): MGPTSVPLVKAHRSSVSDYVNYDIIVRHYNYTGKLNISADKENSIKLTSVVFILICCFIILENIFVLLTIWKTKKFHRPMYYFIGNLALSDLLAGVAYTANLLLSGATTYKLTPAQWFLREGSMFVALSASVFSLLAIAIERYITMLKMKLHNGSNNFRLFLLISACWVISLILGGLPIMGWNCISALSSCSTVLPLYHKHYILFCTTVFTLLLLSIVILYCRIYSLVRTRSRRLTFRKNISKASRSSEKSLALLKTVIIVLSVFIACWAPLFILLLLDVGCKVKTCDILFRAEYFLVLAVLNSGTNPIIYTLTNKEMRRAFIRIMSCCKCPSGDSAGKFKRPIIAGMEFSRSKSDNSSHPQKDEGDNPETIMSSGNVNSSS
T1 sequence (P10275 whole entry): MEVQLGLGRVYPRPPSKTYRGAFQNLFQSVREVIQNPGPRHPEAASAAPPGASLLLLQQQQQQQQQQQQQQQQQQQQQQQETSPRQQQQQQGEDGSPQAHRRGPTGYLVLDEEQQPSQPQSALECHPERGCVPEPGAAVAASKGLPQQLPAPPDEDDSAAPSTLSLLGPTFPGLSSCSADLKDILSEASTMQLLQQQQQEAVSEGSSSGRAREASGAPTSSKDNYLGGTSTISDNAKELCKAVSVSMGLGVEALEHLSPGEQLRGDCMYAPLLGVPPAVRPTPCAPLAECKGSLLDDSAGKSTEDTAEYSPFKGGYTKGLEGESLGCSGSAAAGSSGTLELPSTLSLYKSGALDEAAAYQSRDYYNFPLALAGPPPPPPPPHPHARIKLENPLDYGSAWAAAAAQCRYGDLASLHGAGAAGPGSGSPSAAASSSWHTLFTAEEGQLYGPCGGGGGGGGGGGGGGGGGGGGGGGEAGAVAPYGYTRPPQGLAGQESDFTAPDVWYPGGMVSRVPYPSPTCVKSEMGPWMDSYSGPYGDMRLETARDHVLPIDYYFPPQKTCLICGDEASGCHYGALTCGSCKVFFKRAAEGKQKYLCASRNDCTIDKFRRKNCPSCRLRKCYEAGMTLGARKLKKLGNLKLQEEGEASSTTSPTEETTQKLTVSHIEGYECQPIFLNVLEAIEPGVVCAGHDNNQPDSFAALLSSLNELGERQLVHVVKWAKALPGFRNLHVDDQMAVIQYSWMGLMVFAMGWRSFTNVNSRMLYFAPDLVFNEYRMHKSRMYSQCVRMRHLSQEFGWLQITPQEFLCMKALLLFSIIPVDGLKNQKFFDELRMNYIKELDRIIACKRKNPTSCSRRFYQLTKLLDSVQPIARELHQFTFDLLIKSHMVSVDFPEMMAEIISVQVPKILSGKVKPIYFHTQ
T6 sequence (Q9UBN7 whole entry): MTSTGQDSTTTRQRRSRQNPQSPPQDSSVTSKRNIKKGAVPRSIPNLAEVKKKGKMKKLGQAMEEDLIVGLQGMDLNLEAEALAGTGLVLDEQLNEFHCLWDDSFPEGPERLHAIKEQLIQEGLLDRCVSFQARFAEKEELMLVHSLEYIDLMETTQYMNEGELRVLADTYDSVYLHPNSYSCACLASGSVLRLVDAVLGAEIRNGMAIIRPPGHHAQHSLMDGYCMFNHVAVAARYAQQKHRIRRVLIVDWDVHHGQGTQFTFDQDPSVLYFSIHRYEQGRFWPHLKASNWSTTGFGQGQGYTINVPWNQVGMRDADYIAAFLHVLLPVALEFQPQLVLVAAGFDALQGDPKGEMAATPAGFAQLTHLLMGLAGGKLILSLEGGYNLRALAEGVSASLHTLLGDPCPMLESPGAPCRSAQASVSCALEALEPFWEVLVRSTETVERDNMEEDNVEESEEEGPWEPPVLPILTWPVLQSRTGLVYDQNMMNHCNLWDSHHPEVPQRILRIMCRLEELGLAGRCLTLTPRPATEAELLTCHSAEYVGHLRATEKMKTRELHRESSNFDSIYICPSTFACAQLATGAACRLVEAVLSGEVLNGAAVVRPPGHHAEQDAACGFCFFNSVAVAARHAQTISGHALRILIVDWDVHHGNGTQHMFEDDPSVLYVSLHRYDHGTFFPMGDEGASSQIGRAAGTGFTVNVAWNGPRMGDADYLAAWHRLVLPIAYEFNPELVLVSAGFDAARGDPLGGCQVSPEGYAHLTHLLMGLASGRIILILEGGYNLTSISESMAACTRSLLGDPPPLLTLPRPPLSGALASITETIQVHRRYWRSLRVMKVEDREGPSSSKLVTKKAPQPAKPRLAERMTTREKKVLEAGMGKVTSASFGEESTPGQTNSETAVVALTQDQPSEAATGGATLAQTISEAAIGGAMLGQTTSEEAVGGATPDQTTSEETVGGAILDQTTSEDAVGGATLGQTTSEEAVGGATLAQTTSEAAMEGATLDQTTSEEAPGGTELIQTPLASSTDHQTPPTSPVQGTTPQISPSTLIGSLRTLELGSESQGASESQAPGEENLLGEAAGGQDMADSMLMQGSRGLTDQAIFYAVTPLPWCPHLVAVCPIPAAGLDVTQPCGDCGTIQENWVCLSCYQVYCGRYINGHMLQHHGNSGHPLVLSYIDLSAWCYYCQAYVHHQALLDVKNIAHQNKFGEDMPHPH
T2 sequence (P21728 whole entry): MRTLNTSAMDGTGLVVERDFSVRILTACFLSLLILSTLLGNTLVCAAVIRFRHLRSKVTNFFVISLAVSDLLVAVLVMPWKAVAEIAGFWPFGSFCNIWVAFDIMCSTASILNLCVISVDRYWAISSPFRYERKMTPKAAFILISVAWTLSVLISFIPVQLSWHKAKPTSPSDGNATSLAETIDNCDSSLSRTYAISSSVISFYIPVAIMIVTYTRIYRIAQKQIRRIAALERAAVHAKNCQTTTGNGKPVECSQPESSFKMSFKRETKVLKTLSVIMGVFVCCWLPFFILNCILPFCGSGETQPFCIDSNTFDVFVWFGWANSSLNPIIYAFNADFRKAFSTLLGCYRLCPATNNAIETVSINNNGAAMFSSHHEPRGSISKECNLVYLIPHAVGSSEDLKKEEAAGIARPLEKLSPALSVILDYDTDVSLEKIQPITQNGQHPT
T9 sequence (P49841 whole entry): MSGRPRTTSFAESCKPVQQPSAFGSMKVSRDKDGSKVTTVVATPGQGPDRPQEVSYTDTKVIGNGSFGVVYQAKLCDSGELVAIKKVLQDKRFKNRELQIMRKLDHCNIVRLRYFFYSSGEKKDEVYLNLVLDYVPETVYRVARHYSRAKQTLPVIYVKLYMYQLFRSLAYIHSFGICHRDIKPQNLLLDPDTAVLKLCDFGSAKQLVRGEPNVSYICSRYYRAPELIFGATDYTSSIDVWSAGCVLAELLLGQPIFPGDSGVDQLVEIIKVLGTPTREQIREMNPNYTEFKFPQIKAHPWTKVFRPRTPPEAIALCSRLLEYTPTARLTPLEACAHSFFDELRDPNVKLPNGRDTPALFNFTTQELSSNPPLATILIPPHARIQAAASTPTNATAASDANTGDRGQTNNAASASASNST
T5 sequence (P25021 whole entry): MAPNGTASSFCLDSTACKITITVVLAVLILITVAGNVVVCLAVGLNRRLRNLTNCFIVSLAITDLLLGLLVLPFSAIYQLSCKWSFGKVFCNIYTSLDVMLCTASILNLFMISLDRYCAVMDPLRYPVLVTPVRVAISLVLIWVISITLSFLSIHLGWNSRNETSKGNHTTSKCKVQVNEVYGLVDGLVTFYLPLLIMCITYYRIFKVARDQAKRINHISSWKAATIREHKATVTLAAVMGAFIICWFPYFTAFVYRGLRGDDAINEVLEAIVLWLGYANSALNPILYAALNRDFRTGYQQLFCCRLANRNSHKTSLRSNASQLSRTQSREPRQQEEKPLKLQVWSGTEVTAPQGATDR
T4 sequence (P21397 whole entry): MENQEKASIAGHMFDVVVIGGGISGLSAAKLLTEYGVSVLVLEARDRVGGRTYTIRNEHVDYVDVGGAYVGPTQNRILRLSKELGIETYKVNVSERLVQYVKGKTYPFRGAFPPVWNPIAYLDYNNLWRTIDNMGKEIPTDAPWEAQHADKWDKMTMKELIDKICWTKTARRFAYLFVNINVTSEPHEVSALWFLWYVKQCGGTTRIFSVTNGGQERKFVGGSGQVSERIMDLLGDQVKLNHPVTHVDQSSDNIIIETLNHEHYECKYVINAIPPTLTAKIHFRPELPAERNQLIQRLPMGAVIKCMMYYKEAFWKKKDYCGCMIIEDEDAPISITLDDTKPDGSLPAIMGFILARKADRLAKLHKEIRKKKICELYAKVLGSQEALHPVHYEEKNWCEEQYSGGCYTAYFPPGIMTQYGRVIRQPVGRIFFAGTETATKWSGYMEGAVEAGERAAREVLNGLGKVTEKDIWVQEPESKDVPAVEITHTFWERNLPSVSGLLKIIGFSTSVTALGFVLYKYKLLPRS

For `O=C(OCc1ccc(OC(F)(F)F)cc1)N1C[C@@H]2CN(C(=O)c3ccc4[nH]nnc4c3)C[C@H]2C1` [Compound 13, (3aS,6aS)-5-(1H-Benzotriazole-5-carbonyl)-hexahydro-pyrrolo[3,4-c]pyrrole-2-carboxylic acid 4-trifluoromethoxy-benzyl ester], the “Androgen receptor (h) [% inhib]” value (Androgen receptor) was -1 % inhib, the “Dopamine D1 receptor (h) [% inhib]” value (Dopamine D1 receptor) was 0 % inhib and the “5HT1A (h) [% inhib]” value (5HT1A) was -20 % inhib. The “MAO-A (h) [% inhib]” value (MAO-A) was -1 % inhib, the “Histamine H2 receptor (h) [% inhib]” value (Histamine H2 receptor) was 12 % inhib and the “HDAC6 (h) [% inhib]” value (HDAC6) was -14 % inhib. For the same molecule, the “S1P1 (h), agonist mode [% pos ctrl]” value (S1P1 [1]) was 5 % pos ctrl, the “MMP-3 (h) [% inhib]” value (MMP-3) was 3 % inhib and the “GSK-3B (h) [% inhib]” value (GSK-3B) was -8 % inhib. For the same molecule, the “S1P1 (h), antago. mode [% inhib]” value (S1P1 [2]) was 8 % inhib, the “Muscarininc receptor M4 (h) [% inhib]” value (Muscarininc receptor M4) was -17 % inhib and the “PPARγ (h), agonist mode [% pos ctrl]” value (PPARγ) was 0 % pos ctrl.

— PMC8807399, “Synthesis, Characterization, and in vivo Evaluation of a Novel Potent Autotaxin-Inhibitor” (Frontiers in Pharmacology, 2022)
